# Laboratory results taken from patent publication US12178807B2, “Macrocyclic tyrosine kinase inhibitor and uses thereof” (XUANZHU BIOPHARMACEUTICAL CO., LTD., priority 2018, dated 2024).
# What was measured:
# [1] = system: Ba/F3 SLC34A2/ROS1-G2032R cell line; experiment: In vitro cytological inhibitory activity (Celltiter-Glo assay); type: cell-based; settings: Mus musculus, BaF3, Ba/F3 SLC34A2/ROS1-G2032R cells, 72 hrs
# Description: The cell lines used in the experiment have the following meanings: • Ba/F3 SLC34A2/ROS1-G2032R cell line: • a stable expression cell line of Ba/F3 cells transfected with SLC34A2/ROS1-G2032R. Experimental Method (Celltiter-Glo Assay) 1. Cell Culture and Inoculation
# (§1) All cells were suspension cells and the medium was RPMI-1640+10% FBS, and cells were tested in a logarithmic growth phase.
# (§2) Cells in the logarithmic growth phase were collected and counted using a […]. The cell viability was detected by the trypan blue exclusion method, and the cell viability was kept over 90%. The cell concentration was adjusted to be in a proper range; 90 μL of the cell suspension was added to a 96-well plate.
# (§3) The stock solutions of test compounds were diluted from 10 mM to 1 mM with DMSO and then serially diluted in a 3.16-fold gradient for 9 concentrations. The 2 μL DMSO-gradient diluted compound solutions were added to 98 μL culture solutions to give working stock solutions of test compounds (compound concentration was 10-fold higher than the final concentration, DMSO concentration was 1%, maximum concentration was 10 μM).
# (§4) • 10 μL of compound working stock solution was added to each well in the 96-well plate inoculated with cells (10-fold dilution, final DMSO concentration was 0.1%).
# The final concentrations of test compounds were: 1000 nM, 316 nM, 100 nM, 31.6 nM, 10 nM, 3.16 nM, 1 nM, 0.316 nM and 0.1 nM.
# (§5) The cells were cultured in a cell culture incubator at 5% CO2 for 72 hrs.
# (§6) The CTG reagent was thawed and the cell plate was equilibrated to room temperature for 30 mins, 100 μL of reagent (Celltiter Glo assay kit) was added to each well, shaking was performed for 5 mins with a shaker (in the absence of light), and the plate was incubated at room temperature for 20 mins (in the absence of light). The light signal values were read on the multi-functional microplate reader.
# • 1) Cell viability (%)=(test compound well reading−blank well reading)/(DMSO solvent control well reading−blank well reading)×100%; • 2) a curve was plotted with GraphPad Prism 5.0 and IC50 was obtained.
# [2] = system: Ba/F3 LMNA-NTRK1-G595R cell line; experiment: In vitro cytological inhibitory activity (CelltiterGlo assay); type: cell-based; settings: Mus musculus, BaF3, Ba/F3 LMNA-NTRK1-G595R cells, 72 hrs
# Description: (§7) The cell lines used in the experiment have the following meanings: Ba/F3 LMNA-NTRK1-G595R cell line: • a stable expression cell line of Ba/F3 cells transfected with LMNA-NTRK1 G595R; Ba/F3 ETV6-NTRK3-G623R cell line: • a stable expression cell line of Ba/F3 cells transfected with ETV6-NTRK3-G623R. Experimental Method (CelltiterGlo Assay) 1. Cell Culture and Inoculation
# as §1, §2
# as §3, with “3-fold” for “3.16-fold”
# as §4, §5
# as §6, with “60” for “100”, “2” for “5”, “10” for “20”
# (§8) • 1) Inhibition (%)=(DMSO solvent control well reading−test compound well reading)/(DMSO solvent control well reading−blank well reading)×100%; • 2) a curve was plotted with GraphPad Prism 5.0 and IC50 was obtained.
# [3] = system: Ba/F3 ETV6-NTRK3-G623R cell line; experiment: as above; type: cell-based; settings: Mus musculus, BaF3, Ba/F3 ETV6-NTRK3-G623R cells, 72 hrs
# Description: as §7, §1, §2
# as §3, with “3-fold” for “3.16-fold”
# as §4, §5
# as §6, with “60” for “100”, “2” for “5”, “10” for “20”
# as §8
# [4] = system: BaF3-LMNA-NTRK1-G595R stable cell strain xenograft tumor; experiment: Efficacy study on BaF3-LMNA-NTRK1-G595R stable cell strain subcutaneous xenograft model; type: in vivo, mice (NOD-SCID); settings: bid, p.o., 7 days
# Description: The RPMI 1640 serum-free medium resuspended BaF3 LMNA-NTRK1-G595R stable cell strains were inoculated subcutaneously in the right scapular region of mice (NOD-SCID) at 1×10^6 cells/mouse (0.1 mL/mouse).
# When the average tumor volume was around 500 mm^3, the groups were randomized into vehicle group, Compound 3 group (10 mg/kg, 5 mg/kg, 3 mg/kg, 1 mg/kg, bid) and LOXO-195 group (30 mg/kg, 10 mg/kg, 3 mg/kg, bid).
Structure (SMILES),IC50 [1] [nM],IC50 [2] [nM],IC50 [3] [nM],"T/C (%) ([4]; Experiment 1, 3 mg/Kg)","TGI (%) ([4]; Experiment 1, 3 mg/Kg)",also measured
"C[C@@H]1CCc2ncc(F)cc2[C@H]2CCCN2c2ccc3ncn(c3n2)C(=O)N1 (single isomer, unassigned) [Compound 11]",4.2,2,1.9,–,–,–
"C[C@H]1COc2ncc(F)cc2[C@H]2CCCN2c2ccc3ncn(c3n2)C(=O)N1 (single isomer, unassigned) [Compound 2]",–,0.6,1,–,–,–
"C[C@@H]1CCc2ncc(F)cc2[C@H]2CCCN2c2ccn3ncc(c3n2)C(=O)N1 [LOXO-195, reference compound]",–,–,–,93.6,6.4,"T/C (%) ([4]; Experiment 1, 10 mg/Kg): 63.1%; TGI (%) ([4]; Experiment 1, 10 mg/Kg): 36.9%; T/C (%) ([4]; Experiment 2, 30 mg/Kg): 0%; TGI (%) ([4]; Experiment 2, 30 mg/Kg): 100%"
"C[C@@H]1COc2ncc(F)cc2[C@H]2CCCN2c2ccc3ncn(c3n2)C(=O)N1 (single isomer, unassigned) [Compound 3]",2.3,0.6,1,73.2,26.8,"T/C (%) ([4]; Experiment 2, 1 mg/Kg): 53.7%; TGI (%) ([4]; Experiment 2, 1 mg/Kg): 46.3%; T/C (%) ([4]; Experiment 2, 5 mg/Kg): 0%; TGI (%) ([4]; Experiment 2, 5 mg/Kg): 100%; T/C (%) ([4]; Experiment 2, 10 mg/Kg): 0%; TGI (%) ([4]; Experiment 2, 10 mg/Kg): 100%"
"C[C@H]1COc2ncc(F)cc2[C@@H](C)Nc2ccc3ncn(c3n2)C(=O)N1 [Compound 13, (3R,7S)-4^5-fluoro-3,7-dimethyl-1^3H-5-oxa-2,8-diaza-1(5,3)-imidazo[4,5-b]pyridina-4(3,2)-pyridinacyclononphan-9-one]",6.7,17.3,18.9,–,–,–
